For assay [1], the system named is FKBP-Cas9 in U2OS.eGFP-PEST cells. The experiment in a line: Analysis of Cas9 nuclease activity via genomic eGFP-PEST disruption in U2OS cells. It is filed as cell-based, human. Conditions: for NtLp 2xFKBP Cas9 activity (% eGFP disruption): increasing amount of degrader 1.4-1000 nM. The text has this:
In some embodiments, a quantitative human cell-based reporter assay that enables rapid quantitation of targeted nuclease activities is used to characterize off-target cleavage of Cas9-based RNA guided endonucleases. In this assay, the activities of nucleases targeted to a single integrated EGFP reporter gene can be quantified by assessing loss of fluorescence signal in human U2OS.EGFP cells caused by inactivating frameshift insertion/deletion (indel) mutations introduced by error prone non-homologous end-joining (NHEJ) repair of nuclease-induced double-stranded breaks (DSBs).
In one protocol, U2OS.EGFP cells harboring a single integrated copy of an EGFP-PEST fusion gene are cultured (see e.g., Reyon et al., Nat Biotech 30, 460-465 (2012), which is herein incorporated by reference in its entirety). For transfections, 200,000 cells are nucleofected with gRNA expression plasmid and pJDS246 together with 30 ng of a Td-tomato-encoding plasmid using the SE Cell Line 4D-Nucleofector™ X Kit (Lonza) according to the manufacturer's protocol. Cells are analyzed 2 days post-transfection using a BD LSRII flow cytometer. Transfections for optimizing gRNA/Cas9 plasmid concentration are performed in triplicate and all other transfections are performed in duplicate.
In plasmid delivery, approximately 200,000 U20S.eGFP-PEST cells were nucleofected with 300 ng of Cas9 and sgRNA expression plasmids (NtLp 2xFKBP, NtCt 2xFKBP, LpCt 2xFKBP, and 3xFKBP) using the SE Cell Line 4D-Nucleofector X Kit (Lonza) according to the manufacturer's protocol. Approximately 12,000 transfected cells per well were plated in a 96-well plate (Corning 3904) and incubated with dTAG 47 at 1000 nM, 333 nM, 111 nM, 37 nM, 12 nM, 4 nM, 1.4 nM at 37° C. for 48 hrs. In RNP delivery, 15 pmol pre-formed RNP (Cas9 and NtLp 2xFKBP) were nucleofected and followed the protocol described above. Cells were fixed using 4% paraformaldehyde and HCS NuclearMask Blue Stain. The plate was imaged with IXM ImageXpress Automated High Content Microscope at 4× magnification under two excitation channels (blue and green). Images were analyzed in the MetaXpress software.

Assay [2] has as its system NtLp 2xFKBP Cas9 RNP in S2 cells. The assay is described as follows: Analysis of Cas9 nuclease activity in Drosophila S2 cell via genomic eGFP disruption. It is filed as cell-based. Conditions: RNP delivery, dTAG-47 1000 nM, 10 nM, 0 nM, 48 hrs. How it is done:
Approximately 200,000 S2 cells were nucleofected with 15 pmol pre-formed Cas9 RNP (NtLp 2xFKBP) using SE Cell Line 4S-Nucleofector X Kit (Lonza). Approximately 70,000 transfected S2 cells per well were plated in 96-well plate and incubated with 1000 nM and 10 nM dTAG 47. After incubation at room temperature for 48 hrs, cells were stained with HCS Nuclear Mask Blue stain, and imaged with IXM ImageXpress Automated Hifh Content Microscope at 4× magnification under two excitation channels (blue and green).

Assay [3] deals with FKBP-SpCas9 constructs (NtLp 2xFKBP, NtCt 2xFKBP, LpCt 2xFKBP, 3xFKBP) in HEK293FT cells. The experiment in a line: Western blot analysis of FKBP-SpCas9 degradation. It is filed as cell-based. Conditions: increasing amount of dTAG-47 (0.04-3.3 uM), 24h, tubulin loading control. As for the experimental part: HEK293 or NIH3T3 were transfected with pX330 FKBP-Cas9 plasmid using Lipofectamine 2000 or Lipofectamine 3000 to the manufacturer's protocol accordingly. 24 hours after transfection, cells transiently expressing the different constructs (NtLp 2xFKBP, NtCt 2xFKBP, LpCt 2xFKBP, and 3xFKBP) were incubated in either the absence or the presence of dTAG 47 (3.3 uM, 1.1 uM, 0.37 uM, 0.12 uM, 0.042 uM) for 24h before harvesting. Cells were washed with PBS and proceed to lysis in RIPA buffer. The cell suspensions were centrifuged at 16,000 g for 30 min at 4° C. 20 ug of supernatant were electrophoresed on 4-12% Bis-Tris gel with SDS-Tris running buffer. The protein bands were transferred to nitrocellulose membrane at 100V for 1 h and probed with mouse anti-Cas9 antibody (Abcam) and rabbit anti-tubulin as loading control (Abcam). After blocking and incubation with primary antibodies, membranes were incubated with 680-nm or 800-nm fluorophore labeled secondary antibodies. Protein bands were detected using LI-COR Bioisciences Odyssey Imager and analyzed by Image Studeio Lite (LI-COR Biosciences).

Results on two molecules are retold here after US20210324357A1, “DEGRADATION DOMAIN MODIFICATIONS FOR SPATIO-TEMPORAL CONTROL OF RNA-GUIDED NUCLEASES” (THE BRIGHAM AND WOMEN'S HOSPITAL, INC., priority 2018, published 2021).

“Also recorded” adds a separate entry of the source.

`CC[C@H](C(=O)N1CCCC[C@H]1C(=O)O[C@H](CCc1ccc(OC)c(OC)c1)c1ccccc1OCC(=O)NCCCCCCOc1cccc2c1C(=O)N(C1CCC(=O)NC1=O)C2=O)c1cc(OC)c(OC)c(OC)c1` (stereo partly shown) [dTAG-13]: the “potency in reducing NtLp 2xFKBP Cas9 activity” value in assay [1] (U2OS cells, RNP delivery, comparison of FIG. 4A and 4B) was “less potent than dTAG-47”. Further, the “NtLp 2xFKBP Cas9 activity (% eGFP disruption)” value in assay [1] (U2OS cells, RNP delivery) was “reduced but not as significant”. In assay [1] (plasmid delivery, comparison of FIG. 3A and 3B), the “potency in inducing degradation (eGFP disruption assay of 4 FKBP-Cas9)” value is on record as “less potent than dTAG-47”.

As for `CC[C@H](C(=O)N1CCCC[C@H]1C(=O)O[C@H](CCc1ccc(OC)c(OC)c1)c1ccccc1OCC(=O)NCCCCCCCCNc1ccc2c(c1)C(=O)N(C1CCC(=O)NC1=O)C2=O)c1cc(OC)c(OC)c(OC)c1` (stereo partly shown) [dTAG-47], the “eGFP disruption by NtLp 2xFKBP Cas9 RNP” value in assay [2] is given as “less eGFP disrupted”. Also, the “NtLp 2xFKBP Cas9 activity (% eGFP disruption)” value in assay [1] (U2OS cells, RNP delivery) is given as “reduced significantly”. For the same molecule, the “potency in reducing Cas9 activity” value in assay [1] (plasmid delivery and RNP delivery (FIGS. 3A-3B, 4A-4B)) was “more potent in reducing Cas9 activity”. Also, the “Cas9 protein detected (degradation of FKBP-SpCas9)” value in assay [3] was “less Cas9 protein was detected; also recorded: less Cas protein was detected”.
